Laboratory results from article PMC10202292, “The exquisite specificity of human protein arginine methyltransferase 7 (PRMT7) toward Arg-X-Arg sites” (PLOS ONE, 2023).
Read-outs that look alike come from different tables or passages of the source.

Columns and labels:
GST-HsPRMT7 [1] = molecular target: T1, GST-HsPRMT7 (Homo sapiens, UniProt Q9NVM4); assay: Michaelis-Menten kinetics of peptide substrate methylation (P81 phosphocellulose paper assay); type: biochemical; design: key to Vmax, Michaelis-Menten best-fit value, Fig7 / Vmax, Michaelis-Menten best-fit value, Fig8: Vmax expressed as cpm (averages of cycles 2–4)
T1 construct: full-length human PRMT7 (residues 1–692); 34693; host or cells: E. coli BL21 DE3
T1 sequence (Q9NVM4 1-692): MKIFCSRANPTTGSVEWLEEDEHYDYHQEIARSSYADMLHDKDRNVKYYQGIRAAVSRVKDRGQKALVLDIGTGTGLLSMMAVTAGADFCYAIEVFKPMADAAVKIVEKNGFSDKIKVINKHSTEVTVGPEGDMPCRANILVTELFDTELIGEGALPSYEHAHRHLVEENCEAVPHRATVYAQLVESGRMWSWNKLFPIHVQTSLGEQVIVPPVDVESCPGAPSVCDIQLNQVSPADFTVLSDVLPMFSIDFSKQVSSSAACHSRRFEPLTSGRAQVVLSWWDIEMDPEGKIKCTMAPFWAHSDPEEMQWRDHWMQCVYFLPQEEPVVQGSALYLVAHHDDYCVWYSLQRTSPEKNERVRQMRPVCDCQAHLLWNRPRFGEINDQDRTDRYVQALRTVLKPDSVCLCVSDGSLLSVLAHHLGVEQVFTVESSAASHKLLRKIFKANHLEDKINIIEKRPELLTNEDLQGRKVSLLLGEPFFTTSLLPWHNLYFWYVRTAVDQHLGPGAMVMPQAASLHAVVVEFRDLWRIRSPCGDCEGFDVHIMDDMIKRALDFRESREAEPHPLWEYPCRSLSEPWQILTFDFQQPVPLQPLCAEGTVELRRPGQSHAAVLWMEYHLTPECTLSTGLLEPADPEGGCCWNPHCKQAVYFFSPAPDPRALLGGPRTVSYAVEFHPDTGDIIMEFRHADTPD
Protocol: (§1) In vitro methylation assays were performed with GST-HsPRMT7, the indicated substrate protein or peptide, and 1.4 μM S-adenosyl-L-[methyl-^3H]methionine ([^3H]-AdoMet; PerkinElmer cat no. NET155V), prepared from diluting a stock of 7.0 μM [^3H]-AdoMet (81.9 Ci/mmol, 1 mCi/mL in 9:1 10 mM H2SO4:EtOH, v/v) in 10 mM HCl. All reactions were performed using distilled water buffered with 50 mM potassium HEPES, pH 9.5 and 1 mM DTT, reaching a final reaction volume of 30 μL. The reactions were initiated by adding [^3H]-AdoMet to a final concentration of 0.14 μM. Control reactions (enzyme-only, substrate-only) contained distilled water instead of substrate or GST-HsPRMT7, respectively. After initiation with [^3H]-AdoMet, all reactions analyzed via P81 phosphocellulose filter paper assay were incubated in a water bath at 25°C unless otherwise indicated for the specified time periods and were terminated with 0.5 μL 100% (w/v) trifluoroacetic acid (TFA). P81 assays performed at t = 0 were individually terminated immediately following initiation. Samples analyzed via SDS-PAGE were incubated at 4°C for 24 hours and were quenched by adding 5x SDS sample loading buffer (250 mM Tris-HCl, pH 6.8; 10% SDS, 30% glycerol, 10% β-mercaptoethanol, 0.2% bromophenol blue), followed by heating at 97°C for 3 min.
(§2) In vitro methylation assays with GST-HsPRMT7, selected methyl-accepting substrates, and [^3H]-AdoMet were set up as described previously and performed in triplicate. Following incubation at 25°C unless otherwise indicated for the time periods specified, all samples were quenched with 0.5 μL 100% TFA and centrifuged at 9,300 g for 10 seconds in an Eppendorf centrifuge (Model 5417C). 1 cm^2 pieces of P81 phosphocellulose filter paper (LabAlley catalog no. 05-717-2A) were spotted with 25 μL from each reaction mixture and set to dry overnight. The following day, all filter paper pieces were washed three times with 50 mM sodium bicarbonate solution, pH 9.0, and dried again in liquid scintillation vials. After 5 mL of Safety Solve fluor (RPI industries) was added to each vial, [^3H] radioactivity in each sample was quantified via liquid scintillation counter (Beckman LS6500) for four total cycles at 5 minutes per sample. All data presented are expressed as averages of the cpm from cycles 2–4.
(§3) Statistical analyses were performed using the “Analyze Data” function on GraphPad Prism v.8.0.1. To determine statistical significance, unpaired homoscedastic two-tailed Student’s t tests were performed with significance level α = 0.05 with the relevant data. To obtain apparent km and Vmax values, kinetic data were analyzed by non-linear regression using the Michaelis-Menten equation.

human PRMT7 = conditions: addition of 50 mM NaCl or KCl; cited from earlier work
Protocol: Comparatively, a previous study of ionic strength in human HEK293 cells estimates the intracellular concentration of potassium ions to be about 120–140 mM in human cells. As such, our results in Fig 7 led us to question whether this dramatic decrease in activity may be associated with a loss of either substrate-enzyme binding affinity or catalytic activity. || We confirm that human PRMT7 activity is quite sensitive to changes in the RXR target sequence in the substrate protein. […] The exquisite specificity of PRMT7 toward the basic RXR motif can be contrasted to the much broader speci ...

GST-HsPRMT7 [2] = molecular target: T1, GST-HsPRMT7; assay: P81 phosphocellulose filter paper methylation assay with peptide substrates (cpm, end point and time course); type: biochemical; conditions: 10 μM peptide
Protocol: as §1, §2, §3

PRMT9 = conditions: methylation of SF3B2 at Arg508 (505-CFKRKYL-511); cited from earlier work
Source text: We confirm that human PRMT7 activity is quite sensitive to changes in the RXR target sequence in the substrate protein. […] The exquisite specificity of PRMT7 toward the basic RXR motif can be contrasted to the much broader speci ...

Ac-KKDGKKRKRSRKESY-NH2 [Hs H2B (23–37), synthetic peptide of amino acids 23–37 of human histone H2B, PRMT7 substrate used as positive control, reference compound]
Km (GST-HsPRMT7 [1]; + 130 mM KCl, 5 μg GST-HsPRMT7, 0.14 μM [3H]-AdoMet, 60 min, 25°C, GraphPad Prism fit, read-out: Km, Michaelis-Menten best-fit value, Fig8): 16.8 µM
Km (GST-HsPRMT7 [1]; +130 mM KCl, apparent km, 5 μg GST-HsPRMT7, various peptide concentrations, 0.14 μM [3H]-AdoMet, 60 min, 25°C, pH 9.5, Michaelis-Menten fit, triplicates (Fig 8), read-out: km): 17 µM
Km (GST-HsPRMT7 [1]; no added salt, apparent km of peptide substrate, 5 μg GST-HsPRMT7, various peptide concentrations, 0.14 μM [3H]-AdoMet, 60 min, 25°C, pH 9.5, Michaelis-Menten fit, triplicates (Fig 8), read-out: km): 0.6 µM
Vmax, Michaelis-Menten best-fit value, Fig8 (GST-HsPRMT7 [1]; no salt, 5 μg GST-HsPRMT7, 0.14 μM [3H]-AdoMet, 60 min, 25°C, GraphPad Prism fit): 17053
Km (GST-HsPRMT7 [1]; no salt, 5 μg GST-HsPRMT7, 0.14 μM [3H]-AdoMet, 60 min, 25°C, GraphPad Prism fit, read-out: Km, Michaelis-Menten best-fit value, Fig8): 0.558 µM
increase of apparent km on adding 130 mM KCl (GST-HsPRMT7 [1]; with vs without 130 mM KCl (Fig 8, Table 2)): 30 fold
change of Vmax after adding 130 mM KCl (GST-HsPRMT7 [1]; with vs without 130 mM KCl (Fig 8, Table 2), in words): relatively unchanged
change of GST-HsPRMT7 activity on addition of salt (human PRMT7): decreases by half
methylation activity (GST-HsPRMT7 [2]; 5 μg GST-HsPRMT7, 0.14 μM [3H]-AdoMet, 25°C, 1 hour (Fig 4), approximate): approximately 6,000 cpm
methylation activity (maximum value) (GST-HsPRMT7 [2]; 5 μg GST-HsPRMT7, 0.14 μM [3H]-AdoMet, 25°C, t = 120 min (Fig 6), approximate): about 4,000 cpm
methylation activity (maximum) (GST-HsPRMT7 [2]; 5 μg GST-HsPRMT7, 0.14 μM [3H]-AdoMet, 25°C, t = 3 hours (Fig 4), approximate): approximately 8,000 cpm
GST-HsPRMT7 methylation activity (GST-HsPRMT7 [2]; 5 μg GST-HsPRMT7, 0.14 μM [3H]-AdoMet, 40 min, 25°C (Fig 3), in words): highest
PRMT7 methylation activity (GST-HsPRMT7 [2]; 5 μg GST-HsPRMT7, 0.14 μM [3H]-AdoMet, 20 h, 4°C (Fig 5), in words): highest PRMT7 methylation activity
Mean of GST-HsPRMT7 + peptide, Fig3 (GST-HsPRMT7 [2]; mean of n = 3, 40 min, 25°C): 1604 cpm
Difference between means ± SEM vs peptide only, Fig3 (GST-HsPRMT7 [2]; n = 3, 40 min, 25°C, SEM): 1523 ± 86.54 cpm

B1: SF3B2: splicing factor SF3B2, methylated by PRMT9 at Arg508 (protein, UniProt Q13435 1-895, looked up)
Splicing factor 3B subunit 2: MATEHPEPPKAELQLPPPPPPGHYGAWAAQELQAKLAEIGAPIQGNREELVERLQSYTRQTGIVLNRPVLRGEDGDKAAPPPMSAQLPGIPMPPPPLGLPPLQPPPPPPPPPPGLGLGFPMAHPPNLGPPPPLRVGEPVALSEEERLKLAQQQAALLMQQEERAKQQGDHSLKEHELLEQQKRAAVLLEQERQQEIAKMGTPVPRPPQDMGQIGVRTPLGPRVAAPVGPVGPTPTVLPMGAPVPRPRGPPPPPGDENREMDDPSVGPKIPQALEKILQLKESRQEEMNSQQEEEEMETDARSSLGQSASETEEDTVSVSKKEKNRKRRNRKKKKKPQRVRGVSSESSGDREKDSTRSRGSDSPAADVEIEYVTEEPEIYEPNFIFFKRIFEAFKLTDDVKKEKEKEPEKLDKLENSAAPKKKGFEEEHKDSDDDSSDDEQEKKPEAPKLSKKKLRRMNRFTVAELKQLVARPDVVEMHDVTAQDPKLLVHLKATRNSVPVPRHWCFKRKYLQGKRGIEKPPFELPDFIKRTGIQEMREALQEKEEQKTMKSKMREKVRPKMGKIDIDYQKLHDAFFKWQTKPKLTIHGDLYYEGKEFETRLKEKKPGDLSDELRISLGMPVGPNAHKVPPPWLIAMQRYGPPPSYPNLKIPGLNSPIPESCSFGYHAGGWGKPPVDETGKPLYGDVFGTNAAEFQTKTEEEEIDRTPWGELEPSDEESSEEEEEEESDEDKPDETGFITPADSGLITPGGFSSVPAGMETPELIELRKKKIEEAMDGSETPQLFTVLPEKRTATVGGAMMGSTHIYDMSTVMSRKGPAPELQGVEVALAPEELELDPMAMTQKYEEHVREQQAQVEKEDFSDMVAEHAAKQKQKKRKAQPQDSRGGSKKYKEFKF
Km (PRMT9): 80 nM
